Assay results taken from PubChem BioAssay (NCI).
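Test compounds were applied to cells in 96-well plates for 48 hours at 5 doses. GI50: concentration for 50% inhibition of growth. TGI: concentration producing complete growth inhibition.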

Assays:
Test in all cases: growth of human tumour cells (NCI), 48 h
EKVX NSCLC = system: EKVX NSCLC
OVCAR-4 ovarian = system: OVCAR-4 ovarian
SF-295 CNS = system: SF-295 CNS
TK-10 renal = system: TK-10 renal
KM20L2 colon = system: KM20L2 colon
DLD-1 colon = system: DLD-1 colon
UACC-62 melanoma = system: UACC-62 melanoma
MALME-3M melanoma = system: MALME-3M melanoma
A549 NSCLC = system: A549 NSCLC
MDA-MB-231 breast = system: MDA-MB-231 breast

Structure (SMILES)	TGI (EKVX NSCLC) [µM]	TGI (OVCAR-4 ovarian) [µM]	TGI (SF-295 CNS) [µM]	TGI (TK-10 renal) [µM]	TGI (KM20L2 colon) [µM]	TGI (DLD-1 colon) [µM]	TGI (UACC-62 melanoma) [µM]	TGI (MALME-3M melanoma) [µM]	TGI (A549 NSCLC) [µM]	GI50 (EKVX NSCLC) [µM]	GI50 (OVCAR-4 ovarian) [µM]	GI50 (SF-295 CNS) [µM]	GI50 (TK-10 renal) [µM]	GI50 (KM20L2 colon) [µM]	GI50 (DLD-1 colon) [µM]	GI50 (UACC-62 melanoma) [µM]	GI50 (A549 NSCLC) [µM]	GI50 (MDA-MB-231 breast) [µM]	TGI (MDA-MB-231 breast) [µM]	GI50 (MALME-3M melanoma) [µM]
CC(CC(=O)N1C(=O)C(C)(C)[C@@H](O)[C@H]1CC(C)C(Cl)(Cl)Cl)C(Cl)(Cl)Cl (some centres undefined)	> 100	> 100	> 100	> 100	> 100	> 100	> 100	> 100	> 100	–	–	–	–	–	–	–	–	–	–	–
COc1cc(-c2nccc3cc(OC)c(OC)cc23)ccc1O	> 100	> 100	> 100	> 100	> 100	> 100	> 100	> 100	> 100	–	–	–	–	–	–	–	–	–	–	–
Cc1n[nH]c(=S)n(C)c1=S	> 100	> 100	> 100	> 100	> 100	> 100	> 100	> 100	> 100	–	–	–	–	–	–	–	–	–	–	–
CCC[CH2][Sn]([CH2]CCC)([O]c1cccc2cccnc12)[O]c1cccc2cccnc12	1.22	0.46	0.612	1.66	2.07	0.553	0.421	–	2.92	0.34	0.229	0.247	0.492	0.755	0.232	0.193	1.26	–	–	–
CCOC(=O)C(=O)Nc1nc2c(OCC)cccc2s1	> 100	> 100	> 100	> 100	> 100	> 100	> 100	> 100	> 100	–	–	–	–	–	–	–	–	–	–	–
COc1cc(/C=C(\NC(=O)c2ccccc2)c2nc3ccc4c(c3[nH]2)C(=O)c2ccccc2C4=O)cc(OC)c1OC	> 100	> 100	> 100	> 100	> 100	> 100	> 100	> 100	> 100	–	–	–	–	–	–	–	–	–	–	–
CCCCC(CCCCCC(CCCC)NCc1ccc2c(c1)OCO2)NCc1ccc2c(c1)OCO2 (centres undefined)	2.87	2.81	3.4	2.88	–	–	3.12	2.56	1.02	1.37	1.46	1.76	1.43	–	–	1.57	0.426	0.539	1.83	1.09
COc1cc2c3cc1Oc1c(OC)c(OC)cc4c1C(=NCC4)Cc1ccc(cc1)Oc1cc(ccc1O)C[C@H]3N(C)CC2	> 100	40.7	43.3	43.1	–	–	30.3	18	> 100	–	–	–	–	–	–	–	–	–	27.8	–
O=S(=O)([O-])c1ccc(N=Cc2ccccc2[O-])cc1.O=S(=O)([O-])c1ccc(N=Cc2ccccc2[O-])cc1.[Co+2]	> 100	–	> 100	> 100	–	> 100	> 100	> 100	> 100	69.2	–	> 100	> 100	–	51.1	76.8	> 100	–	–	> 100
